Assay results from patent publication US20110028360A1, “ORGANIC CORROSION INHIBITOR PACKAGE FOR ORGANIC ACIDS” (M-I DRILLING FLUIDS U.K. LIMITED, priority 2008, published 2011).

How the values were obtained:
[1] = Biodegradation according to OECD 301B
Method: (§1) Propoxylated prop-2-yn-1-ol, as a raw material for the corrosion inhibitor compositions disclosed herein, was tested for ecotoxicology. Biodegradation was measured according to OECD 301B. EC50 Toxicity was measured according to ISO/DP 10253. Bioaccumulation log Pow was measured according to OECD 117.

[2] = Bioaccumulation log Pow according to OECD 117; assay type: physicochemical
Method: as §1

[3] = EC50 Toxicity according to ISO/DP 10253
Method: as §1

propoxylated prop-2-yn-1-ol
Biodegradation [1]: 100% (OECD 301B) | Bioaccumulation Log Pow [2]: 2 | Toxicity [3]: 100 mg/L
